Laboratory results reported in PubChem BioAssay AID1963867 (Molecular Pharmacology Branch, DTP, NCI, 2024).

Tested on: KRAS-mutant PDC tumor spheroid with HUVEC/MSC, viability
Test: Anticancer human tumor 327498-153-R-J2-PDC patient-derived uterine carcinosarcoma cell line growth inhibition [KRAS2]
Settings: for IC50: curve of first compound; for viability, T/C: stronger effect = lower value
In short: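 KRAS-mutant tumor cells were grown as spheroids with HUVEC endothelial cells and human MSCs as stroma. Targeted agents were tested alone and with KRAS pathway inhibitors. Doses started at or near clinical Cmax, or 10 microM, descending half-log.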
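Also: spheroids exposed to agents for seven days before reading.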
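For viability, T/C in this document: 100% = DMSO vehicle wells so lower means fewer viable cells.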

CC(=O)Nc1cccc(-n2c(=O)n(C3CC3)c(=O)c3c(Nc4ccc(I)cc4F)n(C)c(=O)c(C)c32)c1 + C=CC(=O)N1CCN(c2nc(OCC3CCCN3C)nc3c2CCN(c2cccc4cccc(C)c24)C3)CC1CC#N
IC50 (second compound 0.0316 µM): 6.53 nM | IC50 (second compound 0.1 µM): 5.43 nM | IC50 (second compound 0.316 µM): 3.49 nM | IC50 (second compound 1 µM): 0.128 nM | IC50 (second compound 3.16 µM): < 0.1 nM | viability, T/C (second compound 0.0316 µM, first compound 0.0001 µM): 72.7% | viability, T/C (second compound 0.0316 µM, first compound 0.000316 µM): 64.8% | viability, T/C (second compound 0.0316 µM, first compound 0.001 µM): 57.4% | viability, T/C (second compound 0.0316 µM, first compound 0.00316 µM): 58% | viability, T/C (second compound 0.0316 µM, first compound 0.01 µM): 49.1% | viability, T/C (second compound 0.0316 µM, first compound 0.0316 µM): 31.4% | viability, T/C (second compound 0.1 µM, first compound 0.0001 µM): 67.1% | viability, T/C (second compound 0.1 µM, first compound 0.000316 µM): 68.3% | viability, T/C (second compound 0.1 µM, first compound 0.001 µM): 58.4% | viability, T/C (second compound 0.1 µM, first compound 0.00316 µM): 53% | viability, T/C (second compound 0.1 µM, first compound 0.01 µM): 47.8% | viability, T/C (second compound 0.1 µM, first compound 0.0316 µM): 25.4% | viability, T/C (second compound 0.316 µM, first compound 0.0001 µM): 58.5% | viability, T/C (second compound 0.316 µM, first compound 0.000316 µM): 54.6% | viability, T/C (second compound 0.316 µM, first compound 0.001 µM): 55.7% | viability, T/C (second compound 0.316 µM, first compound 0.00316 µM): 48% | viability, T/C (second compound 0.316 µM, first compound 0.01 µM): 44.7% | viability, T/C (second compound 0.316 µM, first compound 0.0316 µM): 25.5% | viability, T/C (second compound 1 µM, first compound 0.0001 µM): 48.5% | viability, T/C (second compound 1 µM, first compound 0.000316 µM): 52.4% | viability, T/C (second compound 1 µM, first compound 0.001 µM): 45.7% | viability, T/C (second compound 1 µM, first compound 0.00316 µM): 41.9% | viability, T/C (second compound 1 µM, first compound 0.01 µM): 35.8% | viability, T/C (second compound 1 µM, first compound 0.0316 µM): 22.1% | viability, T/C (second compound 3.16 µM, first compound 0.0001 µM): 0.75% | viability, T/C (second compound 3.16 µM, first compound 0.000316 µM): 0.19% | viability, T/C (second compound 3.16 µM, first compound 0.001 µM): 0.19% | viability, T/C (second compound 3.16 µM, first compound 0.00316 µM): 0.22% | viability, T/C (second compound 3.16 µM, first compound 0.01 µM): 0.18% | viability, T/C (second compound 3.16 µM, first compound 0.0316 µM): 0.31%
